Measured values: ChEMBL document CHEMBL3784964, “Targeting the trehalose utilization pathways of Mycobacterium tuberculosis” (Medchemcomm, 2016)
≈ marks a conversion by molar mass, not a printed value.

Key:
[1] = test system: Mycobacterium tuberculosis; assay: Antimycobacterial activity against Mycobacterium tuberculosis H37Ra ATCC 25177; assay type: functional
[2] = Inhibition of recombinant Mycobacterium tuberculosis H37Rv N-terminal His-tagged glgE expressed in Escherichia coli T7 Rosetta cells using MESG as substrate measured every 5 sec for 10 mins by PNP enzyme coupled assay
[3] = test system: Mycobacterium tuberculosis; assay: Antimycobacterial activity against Mycobacterium tuberculosis H37Rv by microdilution method; assay type: functional
[4] = test system: Mycobacterium tuberculosis; assay: Inhibition of Mycobacterium tuberculosis antigen 85C mycolyltransferase activity at 100 ug/ml incubated for 30 mins by scintillation counting method in presence of [14C]-trehalose relative to control
[5] = test system: Mycobacterium tuberculosis; assay: Antimycobacterial activity against Mycobacterium tuberculosis H37Rv mc26206 incubated for 96 hrs by resazurin microtiter assay; assay type: functional; settings: H37Rv mc26206, 96 h
[6] = Competitive inhibition of recombinant Mycobacterium smegmatis trehalose synthase using DNPGlc as substrate by Dixon plot analysis; design: species or system Mycolicibacterium smegmatis
[7] = test system: Mycobacterium tuberculosis; assay: Antimycobacterial activity against Mycobacterium tuberculosis H37Rv by 2-fold broth dilution method; assay type: functional
[8] = Inhibition of Mycobacterium tuberculosis antigen 85C acyltransferase activity preincubated with enzyme by UV-vis spectrophotometric analysis
[9] = Inhibition of Mycobacterium tuberculosis antigen 85C mycolyltransferase activity incubated for 30 mins by scintillation counting method in presence of [14C]-trehalose
[10] = Inhibition of Mycobacterium tuberculosis antigen 85C mycolyltransferase activity using trehalose as substrate measured every 20 sec for 30 mins by 4-methylumbelliferyl butyrate fluorescence assay
[11] = test system: Mycobacterium tuberculosis; assay: Antimycobacterial activity against Mycobacterium tuberculosis H37Rv; assay type: functional
[12] = test system: Mycobacterium tuberculosis; assay: Antimycobacterial activity against Mycobacterium tuberculosis incubated for 96 hrs by resazurin microtiter assay; assay type: functional

## CCCCCCCCNC[C@H]1O[C@H](O[C@H]2O[C@H](CNCCCCCCCC)[C@@H](O)[C@H](O)[C@H]2O)[C@H](O)[C@@H](O)[C@@H]1O
[1]
  MIC: 4 µg/mL (≈ 7.08 µM)

## OC[C@H]1N[C@H](CO)[C@@H](O[C@H]2O[C@H](CO)[C@@H](O)[C@H](O)[C@H]2O)[C@@H]1O
[2]
  Ki: 237 µM

## COC(=O)c1c(NC(=O)c2c(F)c(F)c(F)c(F)c2F)sc2c1CCCCC2
[3]
  MIC: 1 µM (≈ 0.419 µg/mL)

## [N-]=[N+]=NC[C@H]1O[C@H](O[C@H]2O[C@H](CO)[C@@H](O)[C@H](O)[C@H]2O)[C@H](O)[C@@H](O)[C@@H]1O
[4]
  inhibition: 60%

## O=c1c2ccccc2[se]n1-c1ccccc1 [EBSELEN]
[5]
  MIC: 20 µg/mL (≈ 72.9 µM)

## O=C(Nc1ccccc1)O/N=C1\N[C@H](CO)[C@@H](O)[C@H](O)[C@H]1O
[6]
  Ki: 2.1 µM

## CC(C)=CCC/C(C)=C/CNCCNC1C2CC3CC(C2)CC1C3 (stereo not drawn) [SQ109]
[7]
  MIC: 1.5 µg/mL (≈ 4.54 µM)

## COC(=O)CC[C@H]1O[C@@H](OC)[C@@H](O)[C@@H]1O
[8]
  IC50: 25000 µM

## OC[C@H]1NC[C@H](O)[C@@H](O)[C@@H]1O [DUVOGLUSTAT]
[6]
  Ki: 0.25 µM

## CCOC(=O)c1c(NC(=O)c2c(F)c(F)c(F)c(F)c2F)sc(C(N)=O)c1C
[3]
  MIC: 0.5 µM (≈ 0.211 µg/mL)

## CCCCC(CC)CNC[C@H]1O[C@H](O[C@H]2O[C@H](CNCC(CC)CCCC)[C@@H](O)[C@H](O)[C@H]2O)[C@H](O)[C@@H](O)[C@@H]1O (stereo partly drawn)
[1]
  MIC: 32 µg/mL (≈ 56.7 µM)

## CCCCCCCCS(=O)(=O)OCCN1C(=O)c2ccccc2C1=O
[9]
  IC50: 4.3 µM

## CCCCCCCCS(=O)(=O)NC[C@H]1O[C@H](O[C@H]2O[C@H](CNS(=O)(=O)CCCCCCCC)[C@@H](O)[C@H](O)[C@H]2O)[C@H](O)[C@@H](O)[C@@H]1O
[1]
  MIC: 16 µg/mL (≈ 23.1 µM)

## CCOC(=O)c1c(NC(=O)SC[C@H]2O[C@@H](O)[C@@H](O)[C@@H]2O)sc2c1CCCC2
[10]
  Ki: 18.2 µM

## CCCCCCCCCCCCNC[C@H]1O[C@H](O[C@H]2O[C@H](CNCCCCCCCCCCCC)[C@@H](O)[C@H](O)[C@H]2O)[C@H](O)[C@@H](O)[C@@H]1O
[1]
  MIC: 8 µg/mL (≈ 11.8 µM)

## O=C(Nc1ccc(F)c(F)c1F)NC12CC3CC(CC(C3)C1)C2
[11]
  MIC: 0.5 µg/mL

## CCc1sc(NC(=O)c2c(F)c(F)c(F)c(F)c2F)c(C(=O)OC(C)C)c1C
[3]
  MIC: 1 µM (≈ 0.421 µg/mL)

## CN1CCN(Cc2cc(-c3ccc(Cl)cc3)n(-c3ccc(Cl)cc3)c2-c2ccccc2)CC1
[11]
  MIC: 1.5 µg/mL

## CCCCCCCCCCNC[C@H]1O[C@H](O[C@H]2O[C@H](CNCCCCCCCCCC)[C@@H](O)[C@H](O)[C@H]2O)[C@H](O)[C@@H](O)[C@@H]1O
[1]
  MIC: 1.3 µg/mL (≈ 2.09 µM)

## CCCn1cnc2cc(NCc3ccc(Cl)cc3Cl)ccc21
[11]
  MIC: 16 µM

## OC[C@@H]1[C@@H](O)[C@H](O)C2[C@H](O)[C@@H](O)CN21 (stereo partly drawn)
[6]
  Ki: 2.5 µM

## CCCC1CCc2c(sc(N)c2C#N)C1 (stereo not drawn)
[12]
  MIC: 100 µM (≈ 22 µg/mL)

## c1ccc(CNC23CC4CC(CC(C4)C2)C3)cc1
[3]
  MIC: 10 µM (≈ 2.41 µg/mL)
